Measurements published in US8278480B2, “Salts, aqueous liquid compositions containing salts of S-(+)-abscisic acid and methods of their preparation” (Valent BioSciences Corporation, priority 2008, dated 2012).
Several values for one entry are separate records, joined by “and”; a condition that tells them apart may be missing. Equal entries are not always repeated. Structures can show the parent of a compound that is named as a salt.

Assays:
Type in all cases: in vivo, Tomato (variety: Rutgers)
[1] = tested on: tomato leaf transpiration; experiment: Tomato leaf transpiration inhibition after foliar spray (LI-1600 porometer); settings: for Transpiration rate (% of control), 1 day after treatment: day 1; for Transpiration rate (% of control), 2 days after treatment: day 2; for Transpiration rate (% of control), 3 days after treatment: day 3; for Transpiration rate (% of control), 4 days after treatment: day 4; for Transpiration rate (% of control), 7 days after treatment: day 7; for ABA dose to achieve 50% inhibition of transpiration: from linear regression of 3-day average transpiration rate on log dose; for Relative potency compared to the ammonium salt composition of Comparative Example 11: reciprocal of ratio of doses for 50% transpiration inhibition
Experimental: (§1) Preparation of plant specimens for use in the treatment studies of the EXAMPLES that follow was carried out as follows. Tomato (variety: Rutgers) seeds were sown in an 18-cell flat filled with Promix PGX (available from Premier Horticulture Inc., Quakertown Pa.) and grown for 3 weeks to allow for germination and initial growth. Plants were then transplanted into pots (18 cm in diameter and 18 cm in height), filled with Promix BX (available from Premier Horticulture Inc., Quakertown Pa.), and grown for one or two more weeks before treatment, depending on temperature and available light. Plants received daily irrigation and weekly fertilizer (1 g/L all purpose fertilizer 20-20-20, available from The Scotts Company, Marysville, Ohio).
(§2) All treatment solutions were made up with distilled water. The (S)-(+)-abscisic acid (95% active ingredient) is available from Lomon BioTechnology Co., Ltd. (Shichuan, China). The prior art aqueous solution composition of the ammonium salt of (S)-(+)-abscisic acid as prepared in Example 11 above was used as a positive treatment control for most of the studies.
(§3) All experiments were conducted using a randomized complete block experimental design. Solutions of (S)-(+)-abscisic acid and blank treatments (plain water) were applied by spray to the aerial parts of the tomato plants at the rate of 24 mL per 6 plants. Plants were then placed in a transparent chamber with humidity controlled within the range of 40 to 60% relative humidity. Leaf transpiration rates were measured at 1, 2, 3, 4 and 7 days after treatment. Measurements were conducted using a LI-1600 Steady State Porometer (LI-Cor, Lincoln, Nebr.). Each day the transpiration rate of the plants of each treatment group was normalized to a percentage of the transpiration rate of untreated plants (plants sprayed with water only) in order to control for day-to-day variability in plant status caused by changes of environmental conditions such as light intensity and temperature. Data for each plant was also averaged over a 3-day period to balance the short term and long term effect of (S)-(+)-abscisic acid on tomato leaf transpiration as well as to reduce experimental variability.
The regression equation of each (S)-(+)-abscisic acid salt as well as abscisic acid concentrations for 50% inhibition of transpiration were calculated. The relative potency of two ABA salts is the reciprocal of the ratio of (S)-(+)-abscisic acid concentration required for 50% transpiration inhibition for each composition.

[2] = tested on: tomato shoot fresh weight; experiment: Tomato shoot fresh weight 7 days after treatment (growth suppression); settings: foliar spray
Experimental: as §1, §2, §3
In this experiment, the fresh weights of the aerial parts of the tomato plants were also measured at the end of the experiment, 7 days after treatments were applied, in order to assess the relative growth suppressing activity of the compositions.

[3] = tested on: tomato plants; experiment: Phytotoxicity observed on treated tomato plants; settings: tomato plants after foliar spray
Experimental: as §3, with “variability. It is important to note that no phytotoxicity was observed on any of the plants treated with the compositions of the present invention.” for “variability.”

[4] = tested on: tomato plant height; experiment: Tomato plant height 7 days after treatment (growth suppression); settings: foliar spray
Experimental: as §1, §2
as §3, with “variability. It is important to note that no phytotoxicity was observed on any of the plants treated with the compositions of the present invention.” for “variability.”
In this experiment, the fresh weights of the aerial parts of the tomato plants and their heights were also measured at the end of the experiment, 7 days after treatments were applied, in order to assess the relative growth suppressing activity of the compositions.

[5] = (S)-(+)-abscisic acid dose 0.3 mg, foliar spray
[6] = (S)-(+)-abscisic acid dose 1 mg, foliar spray
[7] = (S)-(+)-abscisic acid dose 3 mg, foliar spray
[8] = (S)-(+)-abscisic acid dose 10 mg, foliar spray
[9] = foliar spray, 250 ppm (S)-(+)-abscisic acid (1 mg), additives as in label
[10] = 75 ppm (0.3 mg) (S)-(+)-abscisic acid
[11] = 250 ppm (1 mg) (S)-(+)-abscisic acid, additives as in label
[12] = 750 ppm (3 mg) (S)-(+)-abscisic acid
[13] = 2500 ppm (10 mg) (S)-(+)-abscisic acid

SMILES | Transpiration rate (% of control), Average of 3 days after treatment [1, 5] | Transpiration rate (% of control), Average of 3 days after treatment [1, 6] | Transpiration rate (% of control), Average of 3 days after treatment [1, 7] | Transpiration rate (% of control), Average of 3 days after treatment [1, 8] | Transpiration rate (% of control), 7-Day Average [1, 9] | Transpiration rate (% of control), 1 day after treatment [1, 9] | Transpiration rate (% of control), 2 days after treatment [1, 9] | Transpiration rate (% of control), 3 days after treatment [1, 9] | Transpiration rate (% of control), 4 days after treatment [1, 9] | Transpiration rate (% of control), 7 days after treatment [1, 9] | ABA dose to achieve 50% inhibition of transpiration [1] | Relative potency compared to the ammonium salt composition of Comparative Example 11 [1] | Fresh weight (g) 7 days after treatment [2, 10] | Fresh weight (g) 7 days after treatment [2, 11] | Fresh weight (g) 7 days after treatment [2, 12] | Fresh weight (g) 7 days after treatment [2, 13] | Phytotoxicity [3] | Plant height (cm) 7 days after treatment [4, 11] | also measured
CC1=CC(=O)CC(C)(C)[C@@]1(O)/C=C/C(C)=C\C(=O)[O-].[Rb+] [Example 1, Rubidium Salt of (S)-(+)-Abscisic Acid] | 77 % of control | 67 % of control | 54 % of control | 39 % of control | 75.9 % of control | 55.8 % of control | 68.0 % of control | 76.5 % of control | 88.2 % of control | 91.0 % of control | 4.05 mg | 2.4 times | 18.6 g | 18.1 g | 17.2 g | 16.4 g | without producing phytotoxicity | – | –
CC1=CC(=O)CC(C)(C)[C@@]1(O)/C=C/C(C)=C\C(=O)[O-].[Cs+] [Example 2, Cesium Salt of (S)-(+)-Abscisic Acid] | 72 % of control | 57 % of control | 47 % of control | 37 % of control | 67.8 % of control | 47.1 % of control | 59.0 % of control | 63.9 % of control | 77.8 % of control | 91.1 % of control | 2.41 mg | 3.2 times and 2.8 times | 16.2 g | 15.3 g | 14.7 g | 11.3 g | without producing phytotoxicity | – | –
CC1=CC(=O)CC(C)(C)[C@@]1(O)/C=C/C(C)=C\C(=O)O.CN(C)C(=N)N(C)C [Example 6, Tetramethylguanidinium Salt of (S)-(+)-Abscisic Acid] | 71 % of control | 61 % of control | 42 % of control | 31 % of control | 70.8 % of control and 76.2 % of control and 78.7 % of control | 51.0 % of control and 51.9 % of control and 47.8 % of control | 61.3 % of control and 64.3 % of control and 69.0 % of control | 71.2 % of control and 75.6 % of control and 84.5 % of control | 79.9 % of control and 89.9 % of control and 93.2 % of control | 90.3 % of control and 99.1 % of control and 99.0 % of control | 1.93 mg | – | – | – | – | – | – | 30.1 cm | –
CC1=CC(=O)CC(C)(C)[C@@]1(O)/C=C/C(C)=C\C(=O)O [Example 11, Ammonium Salt of (S)-(+)-Abscisic Acid, reference compound] | 82 % of control and 80 % of control and 77 % of control and 95 % of control and 90 % of control and 81 % of control and 88 % of control | 72 % of control and 69 % of control and 65 % of control and 78 % of control and 70 % of control and 77 % of control and 71 % of control | 60 % of control and 58 % of control and 55 % of control and 67 % of control and 59 % of control and 62 % of control and 57 % of control | 50 % of control and 48 % of control and 44 % of control and 53 % of control and 51 % of control and 52 % of control and 55 % of control and 49 % of control | – | – | – | – | – | – | – | – | – | – | – | – | – | 19.8 cm and 32.1 cm | Transpiration rate (% of control), 4 Day Average ([1]; foliar spray, 250 ppm (S)-(+)-abscisic acid (1 mg), additives as in label, 4-day average): 75.4 % of control; Transpiration rate (% of control), 9-Day Average ([1]; foliar spray, 250 ppm (S)-(+)-abscisic acid (1 mg), additives as in label, 9-day average): 87.3 % of control; Transpiration rate (% of control), 9 days after treatment ([1]; foliar spray, 250 ppm (S)-(+)-abscisic acid (1 mg), additives as in label, day 9): 100.8 % of control; Plant height (cm) 7 days after treatment [4, 10]: 19.9 cm; Plant height (cm) 7 days after treatment [4, 12]: 18.6 cm; Plant height (cm) 7 days after treatment [4, 13]: 18.6 cm
CC1=CC(=O)CC(C)(C)[C@@]1(O)/C=C/C(C)=C\C(=O)O.CCCCN(CCCC)CCCC [Example 14, Tributylamine Salt of (S)-(+)-Abscisic Acid, reference compound] | 82 % of control | 70 % of control | 53 % of control | 40 % of control | 79.5 % of control | 59.7 % of control | 71.3 % of control | 78.8 % of control | 87.4 % of control | 100.3 % of control | 4.34 mg | – | 15.7 g | 15.3 g | 15.0 g | 13.9 g | – | – | –
